# Tests used:
# [1] = test system: CT26 colon carcinoma cells; assay: CT26 lung metastasis survival model, subcutaneous CDN; format: in vivo, BALB/c mice; conditions: CT26 intravenous, 25 μg subcutaneous at base of the tail, day 1 and one week later, log-rank test, FIG. 19A
# Method: To further assess the ability of the derivative molecules to promote anti-tumor immunity, CT26 colon carcinoma cells (2×10^5 cells in 100 μL PBS) were implanted by intravenous injection into 6-8 week old female BALB/c mice and assessed for overall survival. The CDN compounds (25 μg in a total volume of 100 μL HBSS) were administered one day post tumor implantation by subcutaneous injection into the base of the tail. Mice were boosted with an additional injection one week later for a total of two vaccinations.
# hSTING (Q) = assay: IFNβ-LUC reporter in HEK293T cells expressing hSTING (Q); format: cell-based, human; conditions: 10 μM, digitonin permeabilization, 6 hrs, FIG. 14
# Text: To determine the responsiveness of the five known natural human STING variants (referred to as WT, REF, HAQ, AQ and Q) to the native and derivative molecules, a panel of human embryonic kidney (HEK) 293T cell lines that expressed the human STING alleles was generated. […] MSCV2.2 plasmids encoding hSTING(REF)-GFP, hSTING(WT)-GFP, hSTING(HAQ)-GFP, hSTING(Q)-GFP and mSTING(WT)-GFP were obtained from the Vance Laboratory at UC Berkeley. hSTING(AQ)-GFP was derived from hSTING(Q)-GFP using a QuickChange Site-Directed Mutagenesis kit (Stratagene). The sequence of the hSTING(REF) allele is also known as the Barber allele (Ishikawa, H., and Barber, G. N. (2008). Nature 455, 674-678), and has the NCBI Reference Sequence NP_938023.1. The amino acid difference between hSTING(REF) and the other WT, HAQ, AQ and Q human STING alleles are shown in FIG. 13, which is adapted from Yi et al., Plos One 8: e77846 (2013). Stable HEK 293T-derived cell lines expressing each of the individual human STING alleles were generated by FACS sorting of GFP positive cells using a Mo Flo cell sorter at the Cancer Research Laboratory Flow Cytometry Facility at UC Berkeley. 1×10^4 HEK293T STING cells were seeded in 96-well plates and transiently transfected (using Lipofectamine 2000) with 50 ng of a human IFN-β reporter plasmid (pLuc-IFN-β) expressing the human IFN-β promoter upstream of a luciferase reporter and 10 ng of TK-renilla for normalization. 24 hours later, cells were stimulated with native and synthetic CDN derivative molecules using digitonin permeabalization to ensure uniform uptake. Each STING cell line was stimulated with 10 μM of cyclic [G(3′,5′)pA(3′,5′)p] (cGAMP), cyclic [G(2′,5′)pA(3′,5′)p] (ML-cGAMP), Rp, Rp dithio cyclic [G(2′,5′)pA(3′,5′)p] […] (CDA), Rp, Rp dithio cyclic [A(3′,5′)pA(3′,5′)p] (RR-CDA), cyclic [A(2′,5′)pA(3′,5′)p] (ML-CDA), Rp, Rp dithio cyclic [A(2′,5′)pA(3′,5′)p] (ML RR-CDA), cyclic [G(3′,5′)pG(3′,5′)p] (CDG), Rp, Rp dithio cyclic [G(3′,5′)pG(3′,5′)p] (RR-CDG), cyclic [G(2′,5′)pG(3′,5′)p] (ML-CDG) or Rp, Rp dithio cyclic [G(2′,5′)pG(3′,5′)p] (ML RR-CDG) in 25 ul digitonin buffer (50 mM HEPES, 100 mM KCL, 3 mM MgCl2, 0.1 mM DTT, 85 mM Sucrose, 0.2% BSA, 1 mM ATP, 0.1 mM GTP, 10 ug/ml digitonin). After 20 min, the stimulation mixtures were removed and 200 ul of standard RPMI media was added. After stimulation for 6 hrs, cell lysates were prepared and reporter gene activity measured using the Dual Luciferase Assay System (Promega) on a Spectramax M3 luminometer.
# [2] = test system: natural killer (NK) cells, CD4+ and CD8+ T cells; assay: Surface CD69 upregulation on lymphocytes after subcutaneous CDN (FACS); format: in vivo, BALB/c mice; conditions: 50, 5 and 0.5 μM in 100 μL, base of the tail, 24 hours, FIG. 11
# Method: To determine the relative ability of the derivative molecules to activate immune responses, CDN compounds were administered to 6-8 week old female BALB/c mice (in a total volume of 100 μL in HBSS) at doses of 50, 5 and 0.5 μM by subcutaneous injection into the base of the tail. Mice were assessed 24 hours later for lymphocyte immune cell activation by fluorescent activated cell sorting (FACS) for upregulation of surface CD69 expression on natural killer (NK) cells, CD4+ and CD8+ T cells, as compared to IgG1 isotype controls.
# [3] = test system: CT26 colon carcinoma cells; assay: CT26 colon carcinoma flank tumor model, intratumoral CDN; format: in vivo, BALB/c mice; conditions: for complete inhibition of tumor growth of established CT26 tumors: every three days, three injections, 8 mice per group, FIG. 19B
# Method: Either CT26 colon carcinoma cells (1×10^5 cells in 100 μL PBS) or 4T1 mammary carcinoma cells (1×10^5 cells in 100 μL PBS) were implanted subcutaneously on the flanks of 6-8 week old female BALB/c mice (8 mice per group). Treatments began when tumors reached a volume of approximately 75 mm^3, which was approximately day 14 post tumor implantation. The compounds Rp, Rp dithio cyclic [A(2′,5′)pA(3′,5′)p] (ML RR-CDA) or Rp, Rp dithio cyclic [G(2′,5′)pG(3′,5′)p] (ML RR-CDG) compounds (25 μg in a total volume of 40 μL HBSS), or HBSS vehicle control, and Rp, Rp dithio cyclic [A(2′,5′)pA(3′,5′)p] (ML RR-CDA) (50 μg in a total volume of 40 μL HBSS) or HBSS vehicle control, were administered by subcutaneous injection into the center of the tumor using a 27 gauge needle. Injections were repeated every three days, for a total of three intratumoral injections.
# To determine whether the synthetic derivative CDN molecules elicit durable and effective anti-tumor T-cell immunity, 6-8 week old female BALB/c mice (8 mice per group) were implanted with CT26 colon carcinoma cells (1×10^5 cells in 100 μL PBS). Mice were treated with Rp, Rp dithio cyclic [A(2′,5′)pA(3′,5′)p] (ML RR-CDA) compound ([…] in a total volume of 40 μL HBSS) or HBSS vehicle control, and tumor growth was monitored as per previous example. Mice were bled on day 18 post tumor implantation and PBMCs were isolated by Ficoll gradient (Miltenyi Biotech). 5×10^4 PBMCs were stimulated overnight in an IFNγ ELISpot assay with media alone (unstimulated), or with 1 μM of the endogenous H-2 L^d-restricted tumor rejection antigen AH1 peptide in the presence of 1×10^5 naïve splenocytes as feeder cells. IFN-γ ELISpot plates were developed and quantified using a CTL plate reader and ImmunoSpot software. On day 55 post tumor implantation, surviving mice and age-matched naïve control mice were implanted on the contralateral flank with either CT26 or 4T1 (both 1×10^5 cells in 100 μL PBS) tumor cells (4 mice per group), and monitored for tumor growth.
Structure (SMILES),survival rates [1],IFNβ reporter response of hSTING (Q) (hSTING (Q)),"immune cell activation (surface CD69 on NK, CD4+ and CD8+ T cells) [2]","rejection of established CT26 colon carcinomas ([3]; 50 mg in a total volume of 40 μL HBSS, FIG. 21A)",complete inhibition of tumor growth of established CT26 tumors [3]
"Nc1ncnc2c1ncn2[C@@H]1O[C@@H]2COP(O)(=S)O[C@@H]3C(O)[C@@H](COP(O)(=S)O[C@H]2[C@H]1O)O[C@H]3n1cnc2c(N)ncnc21 (stereo partly drawn) [ML RR-CDA, dithio-[RP, RP]-cyclic-[A(2′,5′)pA(3′,5′)p]]","significantly higher survival rates compared to the cyclic [A(2′,5′)pA(3′,5′)p] (ML CDA) molecule",responsive to stimulation,"induced NK and T cell activation, although to a lesser extent than the ML RR-CDG molecule",all mice treated with ML RR-CDA rejected the growth of established CT26 colon carcinomas,completely inhibited tumor growth of all established CT26 tumors
"Nc1nc2c(ncn2[C@@H]2O[C@@H]3CO[P@@](O)(=S)O[C@@H]4[C@H](O)[C@@H](CO[P@@](O)(=S)O[C@H]3[C@H]2O)O[C@H]4n2cnc3c(=O)[nH]c(N)nc32)c(=O)[nH]1 [ML RR-CDG, dithio-[RP,RP]-cyclic-[G(2′,5′)pG(3′,5′)p]]","significantly higher survival rates compared to the cyclic [G(2′,5′)pG(3′,5′)p] (ML CDG) molecule",responsive to stimulation,potent immune activation of NK and T cells in a dose-dependent manner,–,7 out of 8
